A short description of the series: Human HepG2 cell viability assay in 384 well format. Type of series: toxicity, cell-based. Also on record: dose 125 nL, time 70.5 hour; concentration not given beside the values. The conditions noted are these: HepG2 cells, read-out: Inhibition.
Turning to `COCCNC(=O)[C@@H](C)[C@@H]1CCc2c(C)cc(OCC(=O)O)c(C)c2C1`, the cytotoxicity at 70.5 h was -6%. With `CC[C@H]1CN(S(=O)(=O)c2ccc(OC)cc2)CC[C@H]1CC(=O)O` the figure was -9.14%.

`COCCOc1ccc(C(=O)N[C@@H]2CNCCC[C@H]2O)cc1`: the cytotoxicity at 70.5 h is -2.53%. For `Cn1ccnc1CN1CCOC[C@H]1c1nc(C(C)(C)C)co1` the value was -1.75%; for `CN(C)c1ccc(-c2noc([C@@H]3CCCN3)n2)cn1`, 6.36%. With `COCCNc1ccc(-c2noc([C@@H]3CCCN3)n2)cn1` the figure was 6.15%. For `CN1[C@@H](CCC(=O)NCc2ccc(F)cc2)CNC(=O)[C@H]2NCC[C@H]21` the value was -2.11%; for `c1ccc(-c2nnc([C@H]3CCN(C4CCOCC4)C3)o2)cc1`, -0.562%. Turning to `Cn1cncc1-c1nnc([C@H]2CCN(CC3CCCCC3)C2)o1`, the cytotoxicity at 70.5 h is -1.28%. With `c1ccc(Cc2nnc([C@H]3CCN(C4CCCCC4)C3)o2)cc1` the figure was 1.09%; with `NC(=O)CN1C(=O)CO[C@H]2CN(Cc3ccc(C(F)(F)F)cc3)C[C@H]21`, -1.74%; with `COCCN1C(=O)CO[C@H]2CN(CCCc3ccccc3)C[C@H]21`, -1.96%. For `Clc1ccc(-c2c[nH]c([C@@H]3COCCN3)n2)cc1` the value was -0.826%; for `CC(=O)N1CCC(N2CCOC[C@H]2c2nc(C(C)(C)C)c[nH]2)CC1`, -2.09%; for `COc1ccccc1C(=O)Nc1ccc([C@@H](O)[C@H]2COCC(=O)N2)cc1`, -4.28%. For `N#Cc1cccc(C(=O)Nc2ccc([C@@H](O)[C@H]3COCC(=O)N3)cc2)c1` the value was -9.14%; for `Fc1ccc(CN2CCOC[C@H](Oc3cccnc3)C2)cc1`, 10.5%; for `CNC(=O)C(C)(C)N1CCC[C@H]1C(=O)NC1CC1`, -9.14%. Take `Oc1ccccc1CN1C[C@H](O)C[C@H]1c1nc(Cc2ccccc2)no1`: the cytotoxicity at 70.5 h is -6.19%.

With `CN1C[C@@H](NC(=O)C2CC2)C[C@H]1c1nc(-c2cnccn2)no1`, the cytotoxicity at 70.5 h came out at 1.69%. For `CCN(CC)C1(Cc2cc(CC(C)C)on2)COC1` the value was 0.19%; for `O=C(c1cc(COc2ccc3c(c2)OCO3)[nH]n1)N1CC=CC1CO` (configuration not stated), -8.31%. With `Cc1cnccc1N1CCCN(C(=O)CCCc2cn[nH]c2)CC1` the figure was 2.95%.

In the case of `Cc1nccnc1N1CCC2(CCCN(C3CCOCC3)C2=O)C1` (configuration not stated), the cytotoxicity at 70.5 h worked out at 7.43%. For the compound `COc1cccc(N2CCN(Cc3ccc(NC(C)=O)cc3)CC2=O)c1`, the cytotoxicity at 70.5 h came out at 9.59%. With `Cc1c[nH]c(CN(C)C(=O)c2cccc(CCC(C)(C)O)c2)n1` the figure was -5.47%. Consider `O=C(CSCC1CC1)N1CCCC(c2nccn2Cc2ccncc2)C1` (configuration not stated), for which the cytotoxicity at 70.5 h is -9.73%. `Cc1scc(C(=O)N2CCC3(CC(=O)NC3=O)C2)c1-c1ccccc1` (configuration not stated): the cytotoxicity at 70.5 h is -11%. Turning to `Cc1cccnc1CNCC1(O)CCCN(Cc2ccc(F)cc2)C1=O` (configuration not stated), the cytotoxicity at 70.5 h is 23.1%. With `Cc1c(CN2CCOCC2)c(O)n(CCO)c(=O)c1C#N` the figure was 41%; with `Cc1nn(CC(=O)n2cccn2)c(C)c1I`, 15.6%. For the compound `CCc1noc(-c2cccc(C(=O)O)c2)n1`, the cytotoxicity at 70.5 h is 23.7%.

For `Cc1cc(SCC(=O)O)nc2nn(CC(F)F)c(C)c12`, the cytotoxicity at 70.5 h was -1.44%. In the case of `CCSc1ncc(Cl)c(C(=O)NC(CCSC)C(=O)O)n1` (configuration not stated), the cytotoxicity at 70.5 h was -7.9%. For `CSc1ncc(Cl)c(C(=O)NC(Cc2ccccc2)C(=O)O)n1` (configuration not stated) the value was 15%. Consider `N#CCCn1nc(C(F)(F)F)c2c1CCCC2`, for which the cytotoxicity at 70.5 h is -6.63%. As for `COc1ccc(-c2cc(N)on2)cc1`, the cytotoxicity at 70.5 h was found to be 13.8%. For `CC(C)c1cc(COCCC(=O)O)no1` the value was -6.18%. For `Cc1c(NC(=O)c2noc3c2CCCC3)cnn1C` the value was 16.1%; for `CCC(NC(=O)c1nn(C)cc1C(=O)O)c1ccccc1` (configuration not stated), -15.2%. With `CCC(NC(=O)c1nn(C)cc1C(=O)O)c1ccc(C)cc1` (configuration not stated) the figure was -5.71%; with `CC1=C(C#N)C(=O)NC(=O)/C1=C\c1c(C)nn(-c2ccc(Cl)cc2)c1O`, -6.07%. As for `COc1ccc(N(c2ccc(C)cc2)c2ccc(C(=O)O)s2)cc1`, the cytotoxicity at 70.5 h is -0.995%.

Turning to `Clc1ccc(C2NCCc3cc4c(cc32)OCCO4)cc1` (configuration not stated), the cytotoxicity at 70.5 h stood at 32.9%. Regarding `CCc1ccc(C2NCCc3cc4c(cc32)OCCO4)cc1` (configuration not stated), the cytotoxicity at 70.5 h was determined as 8.93%. For `CNCc1cc(F)ccc1Oc1ccc(F)cc1` the value was 2.53%; for `COc1ccc(C2=CNC(C(F)(F)F)=CC2N)cc1` (configuration not stated), -0.00247%. On to `CC(C)c1cc(CN2CCC(N)CC2)no1`, for which the cytotoxicity at 70.5 h is -6.06%. Consider `Cc1nn(C)cc1-c1cc(C(F)F)n2nc(CCC(=O)O)nc2n1`, for which the cytotoxicity at 70.5 h was -0.99%. For the compound `CCOCn1cc(NC(=O)C2CCN(S(C)(=O)=O)CC2)cn1`, the cytotoxicity at 70.5 h is -2.16%. As to `CS(=O)(=O)N1CCCC(C(=O)Nc2cnn(Cc3ccc(Cl)cc3)c2)C1` (configuration not stated), the cytotoxicity at 70.5 h was 0.541%. Turning to `CCc1nc(C)cn1C(=O)Nc1ccccc1`, the cytotoxicity at 70.5 h came to 2.98%.

As for `CCc1nc(C)cn1C(=O)Nc1ccc(F)cc1`, the cytotoxicity at 70.5 h amounted to 5.48%. For `O=C(O)Cc1nc2nccc(-c3ccc(F)cc3)n2n1`, the cytotoxicity at 70.5 h came out at 17.4%. For `N#Cc1cc2c(nc1O)CCCCC2` the value was -2.17%; for `Cn1c(=O)c2cc(C(=O)NCCOc3ccccc3)ccc2n(C)c1=O`, 24.3%; for `Cn1c(=O)c2cc(C(=O)NCc3ccccn3)ccc2n(C)c1=O`, -4.37%. For `CC(CC#N)n1ccc(C(F)(F)F)n1` (configuration not stated) the value was -0.316%; for `CCC(CC#N)n1ccc(C(F)(F)F)n1` (configuration not stated), 22.2%; for `Cc1nn(C)cc1-c1cc(C(F)(F)F)n(CCCN)n1`, -0.484%.

`Cc1cc(C(F)(F)F)nn1CCCNC(=O)C1CCCO1` (configuration not stated): the cytotoxicity at 70.5 h stood at 16.3%.

On to `COC(=O)N1CC(C)=C(C)CN1C(=O)Nc1cccc(Cl)c1`, for which the cytotoxicity at 70.5 h was 0.501%. Take `CCOC(=O)N1CC(C)=C(C)CN1C(=O)Nc1ccc(Cl)c(Cl)c1`: the cytotoxicity at 70.5 h amounted to 6.17%. `Cc1cc(Br)c(O)c(-c2nc(N3CCOCC3)sc2C)c1`: the cytotoxicity at 70.5 h came to 5.07%.

In the case of `NC(=O)c1c[nH]nc1NC(=O)c1cccc(Cl)c1`, the cytotoxicity at 70.5 h is -3.76%.

Consider `COc1ccccc1-c1cc(C(F)(F)F)c2c(C)nn(CC(=O)O)c2n1`, for which the cytotoxicity at 70.5 h turned out to be 18.1%. For `CCc1cc(C(F)(F)F)c2c(C)nn(CC(=O)O)c2n1`, the cytotoxicity at 70.5 h was determined as 4.66%. For `CCn1ncc(Br)c1CN(C)S(=O)(=O)c1ccc(C)cc1` the value was 8.37%.

As for `CNC(=O)c1cccc(C2CNCCN2C)c1` (configuration not stated), the cytotoxicity at 70.5 h was 19.9%. For the compound `CC(C)N1CCC(Cc2cc(-c3ccccc3C(=O)O)ncn2)CC1`, the cytotoxicity at 70.5 h is 16.5%. With `CNC(=O)[C@@H](c1ccccc1F)N1CCC[C@H]1C(=O)NC1CC1` the figure was -4.55%; with `CNCc1cc(F)ccc1Oc1ccc(Cl)cc1`, 2.13%.
